{"source": "patent US20230417751A1", "about": "“ANALYSIS OF PROTEIN KINASES IN LIVE CELLS” (Texas Tech University System, priority 2021, published 2023)", "key": {"AKT2^M-G": {"biological_target": "T1, AKT2^M-G (Homo sapiens, UniProt P31751, M229G)", "T1 construct": "expressed in transfected cells; host or cells: HCT116", "T1 sequence (P31751 whole entry M229G)": "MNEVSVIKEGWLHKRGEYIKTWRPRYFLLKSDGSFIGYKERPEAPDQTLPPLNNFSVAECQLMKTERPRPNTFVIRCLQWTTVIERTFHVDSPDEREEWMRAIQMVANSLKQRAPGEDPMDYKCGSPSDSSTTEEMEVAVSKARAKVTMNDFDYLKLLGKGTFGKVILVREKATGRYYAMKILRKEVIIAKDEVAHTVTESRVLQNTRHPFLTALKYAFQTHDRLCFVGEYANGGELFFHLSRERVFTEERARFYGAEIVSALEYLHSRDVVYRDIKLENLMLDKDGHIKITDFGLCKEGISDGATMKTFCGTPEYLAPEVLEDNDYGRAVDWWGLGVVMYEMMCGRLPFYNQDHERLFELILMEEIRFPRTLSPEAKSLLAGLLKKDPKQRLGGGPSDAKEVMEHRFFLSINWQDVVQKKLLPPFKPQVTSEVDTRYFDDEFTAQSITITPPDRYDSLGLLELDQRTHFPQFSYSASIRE", "test": "Live cell AKT substrate tagging, cells transfected with AKT2^M-G", "format": "cell-based", "conditions": "HCT116 cells, AKT^M-G expression vector (AKT1 and AKT2 stated together), A*TPγS delivery", "description": "(§1) Intracellular A*TPγS delivery and thio-phosphorylation assays. Control and transfected HCT116 cells were incubated with A*TPγS-loaded LCP nanoparticles for 4 hours. The cells were washed by cold PBS twice and then lysed with RIPA buffer (which contains protease and phosphatase inhibitors) for 30 minutes at 4° C. The cell lysates were treated with 2.5 mM PNBM at room temperature for 1 hour. Then, the PNBM treated cell lysates were analyzed with a western blot assay to measure protein thio-phosphorylation with the anti-thiophosphate ester rabbit monoclonal antibodies (Abcam, USA).\n(§2) Immunoprecipitation assays. The PNBM-treated cell lysates were pre-cleaned by an off-target antibody. Then the cleaned cell lysates were incubated with 10 μL anti-thiophosphate ester rabbit monoclonal antibody (Abcam, USA) at 4° C. for 12 hours. 100 μL protein G beads (Thermo Fisher Scientific, USA) were mixed under rotary agitation at 4° C. for 4 hours, washed twice by wash buffer, and the beads were collected. Then, proteins were captured in the beads and released by elution buffer. The elution buffer was collected and stored at −80° C.\n(§3) Western blotting assay. First, total protein concentrations of the cell lysates were determined by a BCA protein assay kit (Thermo, USA). Protein extracts were separated by SDS-PAGE, then transferred onto a nitrocellulose membrane (NC membrane). […]"}, "mutant AKT1 (M227G)": {"biological_target": "T2, mutant AKT1 (M227G) (Homo sapiens, UniProt P31749, M227G)", "T2 construct": "mutagenesis by GENEWIZ pcDNA3-myr-HA-AKT1 1036; host or cells: HCT116", "T2 sequence (P31749 whole entry M227G)": "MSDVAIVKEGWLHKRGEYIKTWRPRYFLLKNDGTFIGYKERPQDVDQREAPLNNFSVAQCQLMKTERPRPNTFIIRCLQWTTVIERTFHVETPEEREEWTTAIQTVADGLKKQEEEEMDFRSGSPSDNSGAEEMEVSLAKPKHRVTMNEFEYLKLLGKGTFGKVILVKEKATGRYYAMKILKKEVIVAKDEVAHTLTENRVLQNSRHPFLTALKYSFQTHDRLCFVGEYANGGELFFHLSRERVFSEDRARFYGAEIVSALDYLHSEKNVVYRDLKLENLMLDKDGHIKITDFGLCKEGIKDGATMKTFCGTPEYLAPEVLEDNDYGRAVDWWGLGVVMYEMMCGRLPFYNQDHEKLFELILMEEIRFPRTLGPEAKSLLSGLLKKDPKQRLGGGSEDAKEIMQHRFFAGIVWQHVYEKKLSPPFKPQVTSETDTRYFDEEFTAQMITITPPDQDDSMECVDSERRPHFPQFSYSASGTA", "test": "Intracellular A*TPγS delivery and thio-phosphorylation assay, cells transfected with mutant AKT1", "format": "cell-based", "description": "(§4) Plasmid constructs. Wild type AKT1 plasmid was purchased from Addgene (Addgene plasmid pcDNA3-myr-HA-AKT1 1036). Point mutation as in references (37) of the ATP-binding pocket gatekeeper amino acid (M227G) were introduced by GENEWIZ (New Jersey, USA), with a modified Strategene QuikChange® site-directed mutagenesis method.\n(§5) Expression plasmid transfection. The HCT116 cells were plated into […] dishes and transfected at approximately 90% confluence with the specified plasmid (wild type pcDNA3-myr-HA-AKT1 plasmid or the mutant pcDNA3-myr-HA-AKT1 plasmid) using BP-Fectin mammalian cell transfection reagent (BioPioneer, USA) in accordance with the manufacturer's instructions. One untransfected dish was used as a negative control. After 72 hours, cells were washed twice with cold PBS. Transfection efficacy was confirmed by western-blot measurement of the expression of the HA-tagged fusion proteins with the HA tag monoclonal antibody (Thermo Fisher Scientific, USA).\nas §1\nas §2, with “Then, proteins were captured in the beads and released by elution buffer. The elution buffer was collected and stored at −80° C.” left out\n(§6) Western blotting assay. First, total protein concentrations of the cell lysates were determined by a BCA protein assay kit (Thermo, USA). […]"}, "AKT2": {"biological_target": "T3, AKT2 (Homo sapiens, UniProt P31751)", "T3 construct": "expressed in transfected cells; host or cells: HCT116", "test": "Live cell AKT substrate tagging, cells transfected with WT AKT2", "format": "cell-based", "conditions": "HCT116 cells, WT-AKT expression vector (AKT1 and AKT2 stated together), A*TPγS delivery", "description": "as §1, §2, §3"}, "wild type AKT1 [1]": {"biological_target": "T4, wild type AKT1 (Homo sapiens, UniProt P31749)", "test": "Intracellular A*TPγS delivery and thio-phosphorylation assay, cells transfected with wild type AKT1", "format": "cell-based", "parameters": "host or cells: HCT116", "description": "as §4, §5\nIntracellular A*TPγS delivery and thio-phosphorylation assays. […] Then, the PNBM treated cell lysates were analyzed with a western blot assay to measure protein thio-phosphorylation with the anti-thiophosphate ester rabbit monoclonal antibodies (Abcam, USA). […]\nas §6"}, "[2]": {"biological_target": "AKT1 mutant with enlarged ATP binding pocket (Homo sapiens, UniProt P31749, M227G)", "sequence (P31749 whole entry M227G)": "as above", "conditions": "cited from earlier work"}, "wild type AKT1 [3]": {"biological_target": "T4, wild type AKT1", "conditions": "in vitro; cited from earlier work"}, "Akt1M-G": {"biological_target": "T5, Akt1M-G (Homo sapiens, UniProt P31749, M227G)", "T5 construct": "expressed in transfected cells", "T5 sequence (P31749 whole entry M227G)": "as above", "test": "Preliminary fluorogenic experiment with nanoparticle loaded with TNP-A*TP and alexa-fluo-647-ATP", "format": "cell-based", "conditions": "nanoparticle with TNP-A*TP and alexa-fluo-647-ATP 10:1", "description": "The cells transfected with Akt1M-G or WT Akt1 expression vectors were treated with the nanoparticle. Alexa-fluo-647-ATP signal monitored nanoparticle delivery in all cells (FIG. 10A-D)."}}}
{"compound": "N^6-Benzyladenosine-5′-(3-thiotriphosphate) [A*TPγS]", "values": [{"measurement": "thio-phosphorylation by Western blot with alkylated thiophosphate-tag antibody", "setting": "AKT2^M-G", "result": "detected thio-phosphorylation"}, {"measurement": "AKT1 auto-thiophosphorylation: HA-tag Western blot of anti-thiophosphate-ester immunoprecipitant", "setting": "mutant AKT1 (M227G); HCT116 cells, mutant AKT1 vector, A*TPγS-loaded LCP nanoparticle 4 hours, PNBM alkylation", "result": "detected"}, {"measurement": "thiophosphorylation of AKT1 substrate IKKalpha: IKKalpha Western blot of anti-thiophosphate-ester immunoprecipitant", "setting": "mutant AKT1 (M227G); HCT116 cells, mutant AKT1 vector, A*TPγS-loaded LCP nanoparticle, PNBM alkylation", "result": "detected"}, {"measurement": "proteins immunoprecipitated by thiophosphate ester antibody (SDS-PAGE, silver blue coomassie stain)", "setting": "mutant AKT1 (M227G); lysate of mutant-AKT1-expressing HCT116 cells treated with the nanoparticle", "result": "immunoprecipitate at high quantities a large number of proteins"}, {"measurement": "thio-phosphorylation by Western blot with alkylated thiophosphate-tag antibody", "setting": "AKT2", "result": "not those of WT-AKT transfected cells"}, {"measurement": "AKT1 auto-thiophosphorylation: HA-tag Western blot of anti-thiophosphate-ester immunoprecipitant", "setting": "wild type AKT1 [1]; HCT116 cells, wild type AKT1 vector, A*TPγS-loaded LCP nanoparticle 4 hours, PNBM alkylation", "result": "not detected"}, {"measurement": "proteins immunoprecipitated by thiophosphate ester antibody (SDS-PAGE, silver blue coomassie stain)", "setting": "wild type AKT1 [1]; lysate of wild-type-AKT1-expressing HCT116 cells treated with the nanoparticle", "result": "not from that of wild-type-AKT1-expressing cells"}]}
{"compound": "O=P(O)(O)OP(=O)(O)OP(=O)(O)OC[C@H]1O[C@@H](n2cnc3c(NCc4ccccc4)ncnc32)[C@H](O)[C@@H]1O", "note": "[A*TP, N^6-Benzyl-ATP]", "values": [{"measurement": "binding to AKT1 mutant with enlarged ATP binding pocket", "setting": "[2]", "result": "has been shown to bind"}]}
{"compound": "Nc1ncnc2c1ncn2[C@@H]1O[C@H](COP(=O)(O)OP(=O)(O)OP(O)(O)=S)[C@@H](O)[C@H]1O", "note": "[ATPγS]", "values": [{"measurement": "utilization by wild type AKT1 to tag substrate GSK3β", "setting": "wild type AKT1 [3]", "result": "can be utilized by wild type AKT1 to tag its substrate GSK3β in vitro"}]}
{"compound": "TNP-N^6-Benzyl-ATP [TNP-A*TP]", "values": [{"measurement": "TNP-A*TP fluorescence signal, subcellular localization", "setting": "Akt1M-G; Akt1M-G-expressing cells", "result": "localized mainly to cell membrane"}, {"measurement": "TNP-A*TP fluorescence signal, specificity", "setting": "Akt1M-G; cells transfected with Akt1M-G or WT Akt1 vectors", "result": "specific to Akt1M-G-expressing cells"}]}
